How the values were obtained:
[1] = molecular target: T1, muscle-type nicotinic acetylcholine receptor (nAChR) (Torpedo marmorata, UniProt P02711+Q6S3H8+Q6S3H9+Q6S3I0); assay: two-electrode voltage clamp, ACh concentration-current curve in Xenopus oocytes bearing transplanted nAChRs; type: cell-based
T1 construct: gene CHRNA1; native heteropentameric receptor purified from electroplaques, reconstituted in asolectin lipids and transplanted to Xenopus oocytes; with beta1, gamma and delta nAChR subunits (CHRNB1, CHRNG, CHRND) with two alpha1
T1 sequence (P02711 25-461): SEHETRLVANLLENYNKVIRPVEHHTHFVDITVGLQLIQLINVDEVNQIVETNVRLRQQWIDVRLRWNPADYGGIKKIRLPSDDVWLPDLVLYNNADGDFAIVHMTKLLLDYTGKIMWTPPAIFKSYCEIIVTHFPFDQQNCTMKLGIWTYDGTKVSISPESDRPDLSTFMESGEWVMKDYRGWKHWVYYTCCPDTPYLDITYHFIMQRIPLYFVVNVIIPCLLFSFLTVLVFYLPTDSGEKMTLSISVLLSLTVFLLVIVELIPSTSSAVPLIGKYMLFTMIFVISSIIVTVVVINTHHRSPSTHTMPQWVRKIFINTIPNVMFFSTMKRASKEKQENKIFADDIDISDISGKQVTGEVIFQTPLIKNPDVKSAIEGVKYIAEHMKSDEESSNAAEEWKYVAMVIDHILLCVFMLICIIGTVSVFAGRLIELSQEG
T1 sequence (Q6S3I0 25-493): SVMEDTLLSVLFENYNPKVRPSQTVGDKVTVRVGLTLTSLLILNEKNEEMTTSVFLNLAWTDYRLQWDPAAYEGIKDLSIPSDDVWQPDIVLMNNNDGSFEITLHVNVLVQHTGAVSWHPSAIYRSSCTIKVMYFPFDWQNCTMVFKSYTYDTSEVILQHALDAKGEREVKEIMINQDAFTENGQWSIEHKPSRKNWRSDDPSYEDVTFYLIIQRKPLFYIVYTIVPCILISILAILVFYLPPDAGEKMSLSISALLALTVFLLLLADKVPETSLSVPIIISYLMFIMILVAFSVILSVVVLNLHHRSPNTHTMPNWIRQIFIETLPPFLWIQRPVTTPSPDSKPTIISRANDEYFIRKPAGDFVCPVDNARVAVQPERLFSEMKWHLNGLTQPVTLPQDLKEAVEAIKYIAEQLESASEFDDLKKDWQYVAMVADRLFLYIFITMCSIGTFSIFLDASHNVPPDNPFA
T1 sequence (Q6S3H9 18-505): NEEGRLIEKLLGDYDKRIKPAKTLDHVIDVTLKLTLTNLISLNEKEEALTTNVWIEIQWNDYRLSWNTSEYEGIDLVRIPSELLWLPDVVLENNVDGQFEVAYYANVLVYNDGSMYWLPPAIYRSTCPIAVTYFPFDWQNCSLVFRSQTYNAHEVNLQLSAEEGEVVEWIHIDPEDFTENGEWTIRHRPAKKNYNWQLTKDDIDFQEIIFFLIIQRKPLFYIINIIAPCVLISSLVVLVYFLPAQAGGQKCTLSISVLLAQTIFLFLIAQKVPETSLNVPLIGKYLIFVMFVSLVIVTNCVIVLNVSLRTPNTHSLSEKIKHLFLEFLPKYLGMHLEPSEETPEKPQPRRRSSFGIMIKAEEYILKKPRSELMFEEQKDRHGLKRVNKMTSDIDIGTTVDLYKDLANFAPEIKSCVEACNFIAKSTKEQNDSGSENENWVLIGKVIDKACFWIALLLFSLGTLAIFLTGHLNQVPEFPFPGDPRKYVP
T1 sequence (Q6S3H8 22-522): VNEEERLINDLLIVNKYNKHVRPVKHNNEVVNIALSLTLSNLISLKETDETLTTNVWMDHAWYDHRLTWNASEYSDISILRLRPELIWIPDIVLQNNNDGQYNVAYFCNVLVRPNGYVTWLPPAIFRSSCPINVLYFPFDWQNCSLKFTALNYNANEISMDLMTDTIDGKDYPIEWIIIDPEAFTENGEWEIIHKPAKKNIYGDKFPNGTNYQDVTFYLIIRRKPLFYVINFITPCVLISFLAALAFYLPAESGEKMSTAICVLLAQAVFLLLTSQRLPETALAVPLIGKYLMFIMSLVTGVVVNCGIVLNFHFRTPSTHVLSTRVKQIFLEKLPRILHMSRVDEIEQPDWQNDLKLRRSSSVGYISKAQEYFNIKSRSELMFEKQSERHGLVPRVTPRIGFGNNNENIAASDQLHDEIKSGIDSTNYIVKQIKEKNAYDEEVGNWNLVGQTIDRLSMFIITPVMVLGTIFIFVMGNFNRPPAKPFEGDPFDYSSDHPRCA

[2] = molecular target: T1, muscle-type nicotinic acetylcholine receptor (nAChR); assay: two-electrode voltage clamp of ACh-elicited peak currents ([…] ACh) in Xenopus oocytes bearing transplanted nAChRs; type: cell-based

Row | IC50 [2] | SMILES | EC50 [1]
1 | – | CC(=O)OCC[N+](C)(C)C [ACh, acetylcholine] | 37 µM
2 | 0.7 µM | CCCCNc1ccc(C(=O)OCCN(C)C)cc1 [Ttc, 2-(dimethylamino)ethyl 4-(butylamino)benzoate] | –

— publication PMC6092513, “Mechanisms Underlying the Strong Inhibition of Muscle-Type Nicotinic Receptors by Tetracaine” (Frontiers in Molecular Neuroscience, 2018)
